# Source: patent US20030148377A1, “Binding compounds and methods for identifying binding compounds” (priority 2000, published 2003)
# How the values were obtained:
# Type in all cases: cell-based
# [1] = tested on: human IL-2 promoter luciferase reporter in Jurkat cells; test: IL-2 reporter gene analysis, PMA plus ionomycin (pathway that circumvents ZAP-70); conditions: 10 μM peptide; phorbol ester plus ionomycin; FIG. 2G
# Protocol: (§1) Penetratin-containing peptides (FIG. 2A; peptide 7 (SEQ ID NO: 11) or peptide 8 (SEQ ID NO: 12)) were dissolved in DMSO and diluted to 20 μM in 500 μl of serum-free RPMI1640 medium. Ten million Jurkat cells, suspended in 500 μl of serum-free RPMI1640, were added to the peptide solutions for diluted DMSO control and incubated for 30 min at 37° C. Peptide-pretreated cells were treated with 1 μg of the anti-CD3ε mAb at 4° C. for 10 min, followed by another 10 min incubation in the presence of 5 μg of rabbit anti-mouse Ig. Cells were activated by shifting the temperature to 37° C. for 2 min and subsequently lysed in 1% NP40 lysis buffer. […] Luciferase activities from lysates were measured using a Dual-Luciferase Reporter System and Monolight 2010 luminometer.
# (§2) Jurkat cells were electroporated at 250V, 800 μF settings (Invitrogen Life Technologies, Carlsbad, Calif.), in the presence of 10 μg of plasmid carrier DNA (pCAGGS vector), 100 ng of Renilla luciferase control vector (pRL null), and 2.5 μg of a luciferase reporter gene whose transcriptional activity is controlled by the human IL-2 promoter (IL-2-Luc). […] Luciferase activities from lysates were measured using a Dual-Luciferase Reporter System (Promega, Madison, Wis.) and Monolight 2010 luminometer (Analytical Luminescence Laboratory, San Diego, Calif.). […]
# [2] = tested on: Tyr phosphorylation of PLCγ1 or LAT in Jurkat cells; test: Anti-CD3-dependent Tyr phosphorylation of PLCγ1 or LAT in Jurkat cells; conditions: CD3ε cross-linking
# Protocol: Penetratin-containing peptides (FIG. 2A; peptide 7 (SEQ ID NO: 11) or peptide 8 (SEQ ID NO: 12)) were dissolved in DMSO and diluted to 20 μM in 500 μl of serum-free RPMI1640 medium. Ten million Jurkat cells, suspended in 500 μl of serum-free RPMI1640, were added to the peptide solutions for diluted DMSO control and incubated for 30 min at 37° C. Peptide-pretreated cells were treated with 1 μg of the anti-CD3ε mAb at 4° C. for 10 min, followed by another 10 min incubation in the presence of 5 μg of rabbit anti-mouse Ig. Cells were activated by shifting the temperature to 37° C. for 2 min and subsequently lysed in 1% NP40 lysis buffer. Lysates were immunoprecipitated with either the 4G10 anti-phosphotyrosine mAb (FIG. 2B; lanes 1-5), or with anti-PLCγ1 antibody (FIG. 2B; lanes 6-10), or with anti-LAT antibody (FIG. 2D; lane 11-15), and immunoblotted with the HRP-conjugated anti-phosphotyrosine Ab, RC20H. Lanes 1, 2, 6, 7, 11 and 12 corresponded to untreated Jurkat cells; lysates in lanes 3, 8, and 13 were prepared from cells treated with DMSO; lysates in lanes 4, 9, and 14 were prepared from cells treated with peptide 7; lysates in lanes 5, 10, and 15 were prepared from cells treated with peptide 8. (−) indicates nonstimulated cells; (+) indicates stimulation by CD3ε cross-linking. Each blot was stripped and reprobed with anti-PLCγ1 antibody (FIG. 2C) or anti-LAT antibody (FIG. 2E). Jurkat cells were electroporated in the presence of 10 μg of plasmid carrier DNA, 100 ng of Renilla luciferase control vector, and 2.5 μg of a luciferase reporter gene. Transfectants were treated with 10 μM of peptide 7, peptide 8, or DMSO as described above. Treated cells were stimulated with plate-bound anti-CD3ε mAb and 10 ng/ml of PMA (phorbol 12-myristate-13-acetate; FIG. 2F), or 10 ng/ml of PMA plus 2 μM of ionomycin (FIG. 2G) at 37° C. for 2 hr. Luciferase activities from lysates were measured using a Dual-Luciferase Reporter System and Monolight 2010 luminometer. […]
# [3] = tested on: human IL-2 promoter luciferase reporter in Jurkat cells; test: IL-2 reporter gene analysis, anti-CD3ε mAb plus PMA (ZAP-70-dependent pathway); conditions: 10 μM peptide; anti-CD3 plus phorbol ester as stimulant, 2 hr; FIG. 2F
# Protocol: as §1, §2
substance,measurement,setting,value
peptide 8: chimeric peptide with penetratin at the N terminus and peptide 4 at the C terminus (RQIKIWFQNRRMKWKKKLILFLLLL),effect on IL-2 reporter gene expression (in words),[1],no effect on gene expression
same,effect on anti-CD3-stimulated Tyr-phosphorylation of most proteins (in words),"[2]; 30 min peptide pretreatment at 37° C., anti-phosphotyrosine blot, FIG. 2B",little effect on most of these proteins
same,Tyr phosphorylation of LAT (in words),"[2]; anti-LAT immunoprecipitates, FIG. 2D lane 15",reduced the Tyr phosphorylation
same,Tyr phosphorylation of PLCγ1 (in words),"[2]; anti-PLCγ1 immunoprecipitates, FIG. 2B lane 10",reduced the Tyr phosphorylation of PLCγ1
same,inhibition of gene expression (IL-2 reporter),[3],more than 70%
